From paper PMC3854609, “Biosynthesis of Sandalwood Oil: Santalum album CYP76F Cytochromes P450 Produce Santalols and Bergamotol” (PLoS ONE, 2013)
Positions count from the first letter of the chain named.

What was measured:
Experiment in all cases: GCMS product formation, yeast microsomes
Assay type in all cases: biochemical
[1] = target: T1, SaCYP76F39v2 (Santalum album, UniProt V5RGD0); details: substrate in mixture of santalenes and α-exo-bergamotene, 40 µM, NADPH 0.8 mM, pH 7.5, 30°C, 2 h, with SaCPR
T1 construct: gene CYP76F39v2; full-length cDNA in pYEDP60, yeast BY4741 microsomes, co-expressed with S. album CPR2 (KC842188)
T1 sequence (V5RGD0 1-509): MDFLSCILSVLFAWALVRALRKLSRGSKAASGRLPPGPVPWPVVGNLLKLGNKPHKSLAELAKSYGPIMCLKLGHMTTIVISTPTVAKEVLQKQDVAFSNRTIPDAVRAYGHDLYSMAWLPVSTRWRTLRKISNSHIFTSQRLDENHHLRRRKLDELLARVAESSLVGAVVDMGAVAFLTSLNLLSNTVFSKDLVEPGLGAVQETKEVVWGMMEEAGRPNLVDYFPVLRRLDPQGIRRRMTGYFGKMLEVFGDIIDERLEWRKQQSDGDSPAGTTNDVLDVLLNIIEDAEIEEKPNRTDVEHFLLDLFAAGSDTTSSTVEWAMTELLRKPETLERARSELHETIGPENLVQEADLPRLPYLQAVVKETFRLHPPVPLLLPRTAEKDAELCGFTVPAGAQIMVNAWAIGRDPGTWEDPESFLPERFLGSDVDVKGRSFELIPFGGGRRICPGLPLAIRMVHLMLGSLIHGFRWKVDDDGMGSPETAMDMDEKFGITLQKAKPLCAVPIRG

[2] = target: T2, SaCYP76F41 (Santalum album, UniProt V5RFE4); details: substrate in mixture of santalenes and α-exo-bergamotene, 40 µM, NADPH 0.8 mM, pH 7.5, 30°C, 2 h, with SaCPR
T2 construct: gene CYP76F41; full-length cDNA in pYEDP60, yeast BY4741 microsomes, co-expressed with S. album CPR2 (KC842188)
T2 sequence (V5RFE4 1-509): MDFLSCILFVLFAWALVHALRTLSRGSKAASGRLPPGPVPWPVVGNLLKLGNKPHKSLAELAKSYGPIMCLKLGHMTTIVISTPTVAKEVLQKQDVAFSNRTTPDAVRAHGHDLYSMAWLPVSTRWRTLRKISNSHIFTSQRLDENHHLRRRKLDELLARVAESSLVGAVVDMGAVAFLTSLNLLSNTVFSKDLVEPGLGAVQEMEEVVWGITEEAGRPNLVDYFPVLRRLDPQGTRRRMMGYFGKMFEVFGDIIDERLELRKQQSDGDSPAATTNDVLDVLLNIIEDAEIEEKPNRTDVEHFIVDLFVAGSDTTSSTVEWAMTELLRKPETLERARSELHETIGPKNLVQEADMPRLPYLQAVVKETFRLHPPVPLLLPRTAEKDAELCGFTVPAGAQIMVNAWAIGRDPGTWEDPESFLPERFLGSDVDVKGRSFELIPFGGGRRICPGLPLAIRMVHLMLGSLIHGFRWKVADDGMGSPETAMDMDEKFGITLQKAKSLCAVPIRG

[3] = target: T3, SaCYP76F39v1 (Santalum album, UniProt V5RH69); details: NADPH 0.8 mM; potassium phosphate pH 7.5; 30°C; 20 min; with SaCPR; TLC-enriched substrate; read-out: apparent Km
T3 construct: gene CYP76F39v1; full-length cDNA in pYEDP60, yeast BY4741 microsomes, co-expressed with S. album CPR2 (KC842188)
T3 sequence (V5RH69 1-509): T1 sequence (V5RGD0 1-509) with S9F, R21P, K22T, I103T, Y110H

[4] = target: T4, SaCYP76F37v1 (Santalum album, UniProt V5RGC8); details: NADPH 0.8 mM; potassium phosphate pH 7.5; 30°C; 20 min; with SaCPR; TLC-enriched substrate; read-out: apparent Km
T4 construct: gene CYP76F37v1; full-length cDNA in pYEDP60, yeast BY4741 microsomes, co-expressed with S. album CPR2 (KC842188)

[5] = products (Z)- and (E)-β-santalol
[6] = products (Z)- and (E)-α-santalol

T4 sequence (V5RGC8 1-509): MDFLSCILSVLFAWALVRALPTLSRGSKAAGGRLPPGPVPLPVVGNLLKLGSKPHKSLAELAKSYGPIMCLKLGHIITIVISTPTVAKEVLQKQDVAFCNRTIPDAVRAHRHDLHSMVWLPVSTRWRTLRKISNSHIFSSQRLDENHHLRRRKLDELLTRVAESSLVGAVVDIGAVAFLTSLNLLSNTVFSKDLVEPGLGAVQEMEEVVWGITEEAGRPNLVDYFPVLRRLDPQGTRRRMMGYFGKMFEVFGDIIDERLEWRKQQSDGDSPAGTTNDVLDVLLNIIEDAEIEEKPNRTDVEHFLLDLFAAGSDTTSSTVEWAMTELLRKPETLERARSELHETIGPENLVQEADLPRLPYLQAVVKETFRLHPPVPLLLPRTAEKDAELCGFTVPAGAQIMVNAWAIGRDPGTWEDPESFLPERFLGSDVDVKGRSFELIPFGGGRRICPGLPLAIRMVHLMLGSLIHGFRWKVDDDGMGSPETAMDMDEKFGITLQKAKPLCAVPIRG

SMILES	GCMS product formation, yeast microsomes [1, 5]	GCMS product formation, yeast microsomes [2, 5]	Km [3] [µM]	Km [4] [µM]	GCMS product formation, yeast microsomes [1, 6]	GCMS product formation, yeast microsomes [2, 6]
C=C1[C@@H]2CC[C@@H](C2)[C@@]1(C)CCC=C(C)C [compound 4, β-santalene]	gave product profiles similar to that observed with CYP76F39v1	gave product profiles similar to that observed with CYP76F39v1	34.8	157		
CC(C)=CCCC1(C)C2CC3C(C2)C31C (stereo not drawn) [compound 1, α-santalene]					gave product profiles similar to that observed with CYP76F39v1	gave product profiles similar to that observed with CYP76F39v1
